Measurements taken from patent publication US20220195059A1, “Rank Pathway Inhibitors in Combination with CDK Inhibitors” (INSTITUTO DE MEDICINA MOLECULAR JOÃO LOBO ANTUNES, priority 2019, published 2022).

What was measured:
Type in all cases: cell-based, human
[1] = test system: RANK OE cells (MCF-7^OE, T47D^OE) and parental MCF-7, T47D cells; assay: Alamar blue viability assay, RANK OE luminal breast cancer cells vs parental counterparts; conditions: for sensitivity of RANK OE cells to the drug (cell viability): RANK OE cells vs parental counterparts, drug alone
Experimental: (§1) Cells were seeded in 96 well-plates (2-5×10^4 cells/mL), with or without paclitaxel (Y0000698, Sigma), doxorubicin hydrochloride (D2975000, Sigma), palbociclib (PD 0332991 isethionate, PZ0199, Sigma), ribociclib (LEE011 succinate, SC-488174, Santa Cruz), abemaciclib mesylate (LY2835219, S7158, Selleckchem), fulvestrant (S1191, Selleckchem), everolimus (#73122, StemCell Technologies), full length human OPG (SRP3132, Sigma), and OPG-Fc (Amgen). Medium was replaced every 2 days. After 7 days, 1:10 Alamar blue (Invitrogen) was added to each well and fluorescence was measured 2 hours after incubation (excitation 560 nm; emission 590 nm) in an Infinite M200 microplate reader (Tecan).
In particular, RANK OE cells were tested for responsiveness to hormone therapy. Briefly, RANK OE cells were seeded in multi-well plates and exposed to fulvestrant for 7 days.
In this assay, however, RANK OE cells were exposed to a CDK 4/6 inhibitor alone or in combination with an inhibitor of the RANK pathway, in order to test the effect of blocking the RANK pathway in this context. Briefly, RANK OE cells were seeded in multi-well plates and exposed to palbociclib, ribociclib or abemaciclib alone or in combination with OPG-Fc for 7 days. Osteoprotegrin (OPG) is the physiologic soluble decoy receptor for RANK ligand (RANKL), and OPG-Fc is a fusion protein comprising only the four cysteine-rich domains of OPG (D1 to D4) fused with the Fc domain of an IgG1 antibody.
In this study, the CDK4/6 inhibitors palbociclib and ribociclib were exposed to RANK OE cells in combination with fulvestrant or everolimus. This combination therapy was then tested alone or in combination with OPG, an inhibitor of the RANK pathway. In this assay, the full-length OPG protein was used, in contrast to the previous example utilizing OPG-Fc.
To address this question, cell growth in the presence or absence of a CDK4 inhibitor was quantified. Briefly, cells were seeded in 96-well plates and exposed to two different drugs, CDK4 inhibitors, 3-ATA (FIG. 20A) or Cdk4 inhibitor Ill (FIG. 20B) for seven days. Medium was replaced every two days, and viability was assessed by Alamar blue assay. FIG. 20A provides the cell growth quantification in the presence of the CDK4 inhibitor 3-ATA and FIG. 20B provides the cell growth quantification in the presence of another CDK4 inhibitor, Cdk4 Inhibitor Ill. The results are the mean of at least three independent assays, with 4 replicates per assay, and presented as the mean±SEM. p-value was calculated using 2-way ANOVA, *p<0.05, **p<0.01, ***p<0.001.
To answer this question, cell growth in the presence of the pan-CDK inhibitor seliciclib (also known as roscovitine or CYC202) was analyzed. Briefly, cells were seeded in 96-well plates and exposed to different drugs for seven days. Medium was replaced every two days, and viability was assessed by Alamar blue assay.
(§2) Cells were seeded in 96 well-plates (2-5×10^4 cells/mL), with or without palbociclib (PD 0332991 isethionate, PZ0199, Sigma), ribociclib (LEE011 succinate, SC-488174, Santa Cruz), abemaciclib mesylate (LY2835219, S7158, Selleckchem), 3-ATA (sc-202414, Santa Cruz), Cdk4 inhibitor Ill (sc-202988, Santa Cruz), seliciclib (S1153, Selleckchem), and OPG-Fc (PL-33324, Amgen). Medium was replaced every 2 days. After 7 days, 1:10 Alamar blue (Invitrogen) was added to each well and fluorescence was measured 2 hours after incubation (excitation 560 nm; emission 590 nm) in an Infinite M200 microplate reader (Tecan).

[2] = test system: TNBC cells (MDA-MB-231, MDA-MB-436, MDA-MB-468, MDA-MB-157, HCC1937, BT-20); assay: Alamar blue viability assay, TNBC cell lines with or without OPG-Fc; conditions: 7 days
Experimental: as §1
Medium was replaced every two days, and viability was assessed by Alamar blue assay.
as §2

[3] = test system: MDA-MB-231 TNBC cells; assay: Alamar blue viability assay, MDA-MB-231 TNBC cells with or without RANK knockdown; conditions: 7 days
Experimental: For lentiviral transduction, MDA-MB-231GFP+Luc+ cells were seeded in 24-well plates, at a density of 4×10^4 cells/well. 24 hours after seeding, medium was replaced by fresh medium containing 8 μg/ml Polybrene (Sigma) and RANK shRNA (h) lentiviral particles (15-20 μl/well; sc-42960-V, Santa Cruz) or control shRNA lentiviral particles (15-20 μl/well; sc-108080, Santa Cruz). Cells were selected with 0.5 μg/mL Puromycin dihydrochloride (Sigma) starting three days after transduction.
as §1
RANK KD clones were first generated for use in sensitivity assays. Briefly, MCF-7GFP+Luc+ cells were seeded in multi-well plates and then exposed to fresh medium comprising RANK shRNA (h) lentiviral particles or control shRNA lentiviral particles. The transduced cells were selected using Puromycin dihydrochloride starting three days post-transduction.

`CC[C@H](CO)Nc1nc(NCc2ccccc2)c2ncn(C(C)C)c2n1` [seliciclib] was tested. Which “sensitivity of RANK OE cells to pan-CDK inhibitor” value ([1]; RANK OE cells vs parental (RANK low) cells, 7 days) did it give?
The value was “less sensitive”.

What about the “enhancement of the effect of palbociclib, or palbociclib plus OPG-Fc” value ([1]; RANK OE cells, 7 days) of the same molecule?
The value was “did not enhance”.

How did the “sensitivity of RANK OE cells to the drug (cell viability)” value ([1]; 7 days) turn out when `Nc1ccc2c(=S)c3ccccc3[nH]c2c1` [3-ATA, 3-Amino-9-thio(10H)-acridone] was run?
Its value is “resistant”.

And the “resistance of RANK OE cells to doses above 2.5 μM” value ([1]; RANK OE cells, 7 days)?
Its value is “resistant to even higher doses”.

With `CCN1CCN(Cc2ccc(Nc3ncc(F)c(-c4cc(F)c5nc(C)n(C(C)C)c5c4)n3)nc2)CC1` [abemaciclib] as the molecule, how does the “sensitivity of TNBC cells to CDK4/6 inhibitor (cell viability)” value [2] read?
Its value is “resistance”.

And the “sensitivity of RANK OE cells to the drug (cell viability)” value ([1]; 7 days)?
The value was “decreased sensitivity”.

What does the source list for `CN(C)C(=O)c1cc2cnc(Nc3ccc(N4CCNCC4)cn3)nc2n1C1CCCC1` [ribociclib]?
sensitivity to CDK4/6 inhibitor (cell viability) ([3]; MDA-231 cells and MDA-231 shControl cells): resistance; sensitivity to CDK4/6 inhibitor (cell viability) ([3]; TNBC RANK KD cells (MDA-231 shRANK) vs RANK expressing cells): restored sensitivity; sensitivity of TNBC cells to CDK4/6 inhibitor (cell viability) [2]: resistance; sensitivity of RANK OE cells to the drug (cell viability) ([1]; 7 days): decreased sensitivity

Which “sensitivity of RANK OE cells to the drug (cell viability)” value ([1]; 7 days) does the source give for `C[C@]12CC[C@@H]3c4ccc(O)cc4C[C@@H](CCCCCCCCC[S+]([O-])CCCC(F)(F)C(F)(F)F)[C@H]3[C@@H]1CC[C@@H]2O` (stereo partly shown) [fulvestrant] here?
The value was “decreased sensitivity”.

`Cc1ccc(NC2=CC(=O)c3sc(C)nc3C2=O)cc1` [Cdk4 inhibitor Ill, 5-(N-(4-Methylphenyl)amino)-2-methyl-4,7-dioxobenzothiazole] was tested. Which “sensitivity of RANK OE cells to the drug (cell viability)” value ([1]; 7 days) did it give?
The value was “resistant”.

B1: OPG: full-length OPG protein, soluble decoy receptor for RANK ligand (protein, UniProt O00300 1-401, looked up)
chain: MNNLLCCALVFLDISIKWTTQETFPPKYLHYDEETSHQLLCDKCPPGTYLKQHCTAKWKTVCAPCPDHYYTDSWHTSDECLYCSPVCKELQYVKQECNRTHNRVCECKEGRYLEIEFCLKHRSCPPGFGVVQAGTPERNTVCKRCPDGFFSNETSSKAPCRKHTNCSVFGLLLTQKGNATHDNICSGNSESTQKCGIDVTLCEEAFFRFAVPTKFTPNWLSVLVDNLPGTKVNAESVERIKRQHSSQEQTFQLLKLWKHQNKDQDIVKKIIQDIDLCENSVQRHIGHANLTFEQLRSLMESLPGKKVGAEDIEKTIKACKPSDQILKLLSLWRIKNGDQDTLKGLMHALKHSKTYHFPKTVTQSLKKTIRFLHSFTMYKLYQKLFLEMIGNQVQSVKISCL
modifications: full-length
notes: full-length OPG protein, soluble decoy receptor for RANK ligand
How did the “sensitivity of RANK OE cells to CDK4/6 inhibitor combination therapy when further combined with OPG” value ([1]; full-length OPG added to palbociclib or ribociclib plus fulvestrant or everolimus) turn out when B1 was run?
The value was “restored”.
